Laboratory results published in patent publication US9670261B2 (Sanofi, priority 2012, dated 2017).
*1 amine or outer side, *2 acyl side, *3 side chain or, on linkers, in order; H or OH if unused. Where a SMILES comes first, the peptide text is derived from it. Side-chain parts run from the residue outwards. [ ]: non-standard residue; d: D form. The star is where a group is joined. γGlu = O=C(O)[C@H](CCC(=O)[*:2])N[*:1]; Palmitoyl = CCCCCCCCCCCCCCCC(=O)*; Aib = CC(C)(N)C(=O)O

Key:
[1] = Pharmacokinetic testing in Göttinger minipigs, s.c.; assay type: in vivo; conditions: female, minipig, plasma, sc, Mini pigs, 0.1 mg/kg s.c.
Protocol: Female Göttinger minipigs were dosed 0.1 mg/kg subcutaneously (s.c.). Blood samples were collected after 0.25, 0.5, 1, 2, 4, 8, 24, 32, 48, 56 and 72 hours post application. Plasma samples were analyzed after protein precipitation via liquid chromatography mass spectrometry (LC/MS). PK parameters and half-life were calculated using WinonLin Version 5.2.1 (non-compartment model).

[2] = Solubility testing in buffer (HPLC-UV); conditions: buffer
female NMRI-mice = experiment: Gastric emptying and intestinal passage in mice; assay type: in vivo; conditions: versus vehicle control
Protocol: Female NMRI-mice of a body weight between 20 and 30 g were used. Mice were adapted to housing conditions for at least one week. Mice were overnight fasted, while water remained available all the time. On the study day, mice were weighed, single-caged and allowed access to 500 mg of feed for 30 min, while water was removed. At the end of the […], remaining feed was removed and weighed. Then, the test compound/reference compound or its vehicle in the control group was administered subcutaneously. 60 min later, to allow the compound to reach relevant plasma exposure, a coloured, non-caloric bolus was instilled via gavage into the stomach. After another 30 min, the animals were sacrificed and the stomach and the small intestine prepared. The filled stomach was weighed, emptied, carefully cleaned and dried and reweighed. The stomach content, calculated as weight of filled subtracted by the weight of emptied stomach, indicated the degree of gastric emptying. The small intestine was straightened without force and measured in length. Then the distance from the gastric beginning of the gut to the tip of the farthest traveled intestinal content bolus was measured. The intestinal passage was given as ratio in percent of the latter distance and the total length of the small intestine. […] Statistical analyses were performed with Everstat 6.0 by 1-way-ANOVA, followed by Dunnett's as post-hoc test. Dunnett's Test was applied to compare versus vehicle control. Differences were considered statistically significant at the p<0.05 level.

human GLP-1 receptor = target: T1, human GLP-1 receptor (Homo sapiens, UniProt P43220); experiment: cAMP response (HTRF) of HEK-293 cells stably expressing human GLP-1 receptor; assay type: cell-based; conditions: Table 7; cAMP formation; read-out: EC50 hGLP-1 R
T1 construct: expressed in transfected cells
T1 sequence (P43220 24-463): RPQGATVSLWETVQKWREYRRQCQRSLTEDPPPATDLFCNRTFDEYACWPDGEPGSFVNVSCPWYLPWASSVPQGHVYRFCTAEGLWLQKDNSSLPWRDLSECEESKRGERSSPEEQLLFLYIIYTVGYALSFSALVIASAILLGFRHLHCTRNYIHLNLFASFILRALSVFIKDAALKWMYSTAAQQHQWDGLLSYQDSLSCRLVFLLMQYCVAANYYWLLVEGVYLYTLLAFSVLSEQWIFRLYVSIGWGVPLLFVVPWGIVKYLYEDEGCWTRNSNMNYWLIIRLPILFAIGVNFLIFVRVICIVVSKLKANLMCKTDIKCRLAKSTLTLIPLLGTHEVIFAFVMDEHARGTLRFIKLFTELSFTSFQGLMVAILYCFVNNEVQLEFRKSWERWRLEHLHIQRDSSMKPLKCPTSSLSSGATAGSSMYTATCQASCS
In short: (§1)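 Stably transfected HEK-293 cells, accutase-harvested; assay buffer 1×HBSS/20 mM HEPES/0.1% BSA/2 mM IBMX; 400000 cells/ml; compound 30 min, RT; cAMP by HTRF kit.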

[3] = tested on: female leptin-receptor deficient diabetic db/db mice; experiment: Blood glucose and HbA1c in leptin-receptor deficient diabetic db/db mice (method 3); assay type: in vivo
In short: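 Female db/db mice (9–10 weeks at arrival) dosed at 5 mL/kg for 4 weeks with free food and water. Tail blood without anaesthesia: glucose by hexokinase and HbA1c measured before and at end of treatment, plus a 24-h glucose profile; repeated-measures two-way ANOVA with Dunnett's versus vehicle db/db, p<0.05.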

[4] = Chemical stability in solution, 7 days at 25° C. (% remaining peptide); conditions: % remaining peptide after 7 days at 25° C.
Protocol: After that time course, the sample was centrifuged for 20 min at 4000 rpm and the supernatant was analysed with HPLC-UV. For determination of the amount of the remaining peptide, the peak areas of the target compound at t0 and t7 were compared, resulting in “% remaining peptide”, following the equation % remaining peptide=[(peak area peptide t7)×100]/peak area peptide t0.
The chemical stability is expressed as “% remaining peptide”.

human GIP receptor = target: T2, human GIP receptor (Homo sapiens, UniProt P48546); experiment: cAMP response (HTRF) of HEK-293 cells stably expressing human GIP receptor; assay type: cell-based; conditions: Table 7; cAMP formation; read-out: EC50 hGIP R
T2 construct: expressed in transfected cells
T2 sequence (P48546 22-466): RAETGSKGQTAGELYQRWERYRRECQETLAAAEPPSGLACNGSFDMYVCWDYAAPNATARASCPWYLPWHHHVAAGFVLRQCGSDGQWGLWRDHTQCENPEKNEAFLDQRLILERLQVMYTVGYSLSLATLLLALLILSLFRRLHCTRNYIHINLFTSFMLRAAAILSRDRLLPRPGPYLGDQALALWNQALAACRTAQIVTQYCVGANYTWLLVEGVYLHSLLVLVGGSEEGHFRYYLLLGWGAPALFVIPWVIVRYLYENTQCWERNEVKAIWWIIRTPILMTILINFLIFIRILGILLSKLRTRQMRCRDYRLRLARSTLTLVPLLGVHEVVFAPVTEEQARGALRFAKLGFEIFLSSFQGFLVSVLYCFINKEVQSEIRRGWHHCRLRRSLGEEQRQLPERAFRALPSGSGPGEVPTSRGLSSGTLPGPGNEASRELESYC
In short: as §1

CCCCCCCCCCCCCCCC(=O)N[C@@H](CCC(=O)NCCCC[C@H](NC(=O)[C@H](CCC(N)=O)NC(=O)[C@@H](NC(=O)[C@H](CO)NC(=O)[C@H](CC(C)C)NC(=O)[C@H](CC(=O)O)NC(=O)[C@H](CO)NC(=O)[C@@H](NC(=O)[C@H](Cc1ccccc1)NC(=O)[C@@H](NC(=O)CNC(=O)[C@H](CCC(=O)O)NC(=O)C(C)(C)NC(=O)[C@@H](N)Cc1ccc(O)cc1)[C@@H](C)O)[C@@H](C)O)[C@@H](C)CC)C(=O)N[C@@H](CCC(=O)O)C(=O)N[C@@H](CCCCN)C(=O)N[C@@H](CCCNC(=N)N)C(=O)N[C@@H](C)C(=O)N[C@@H](C)C(=O)NC(C)(C)C(=O)N[C@@H](CCC(=O)O)C(=O)N[C@@H](Cc1ccccc1)C(=O)N[C@H](C(=O)N[C@@H](CCC(=O)O)C(=O)N[C@@H](Cc1c[nH]c2ccccc12)C(=O)N[C@@H](CC(C)C)C(=O)N[C@@H](CCCCN)C(=O)N[C@@H](CC(N)=O)C(=O)N[C@H](C(=O)NCC(=O)N1CCC[C@H]1C(=O)N[C@@H](CO)C(=O)N[C@@H](CO)C(=O)NCC(=O)N[C@@H](C)C(=O)N1CCC[C@H]1C(=O)N1CCC[C@H]1C(=O)N1CCC[C@H]1C(=O)N[C@@H](CO)C(N)=O)[C@@H](C)O)[C@@H](C)CC)C(=O)O [SEQ ID NO: 9, Y-Aib-E-G-T-F-T-S-D-L-S-I-Q-K(γE-x53)-E-K-R-A-A-Aib-E-F-I-E-W-L-K-N-T-G-P-S-S-G-A-P-P-P-S-NH2] (H-Y[Aib]EGTFTSDLSIQK([γGlu-Palmitoyl])EKRAA[Aib]EFIEWLKNTGPSSGAPPPS-NH2)
Cmax [1]: 278 ng/mL
half-life [1]: 12.2 h
solubility at 2 h ([2]; pH 4.5): > 1000 µg/mL
solubility at 2 h ([2]; pH 7.4): > 1000 µg/mL
increase of remaining gastric contents (female NMRI-mice; 1 μg/kg s.c.): 32%
reduction of intestinal passage (female NMRI-mice; 1 μg/kg s.c.): 49%
increase of remaining gastric contents (female NMRI-mice; 3 μg/kg s.c.): 79%
reduction of intestinal passage (female NMRI-mice; 3 μg/kg s.c.): 62%
increase of remaining gastric contents (female NMRI-mice; 10 μg/kg s.c.): 111%
reduction of intestinal passage (female NMRI-mice; 10 μg/kg s.c.): 64%
EC50 (human GLP-1 receptor): 3.6 pM
HbA1c level versus db/db control mice at the end of the study ([3]; 10, 30 and 100 μg/kg s.c. once daily, 4 weeks, all three doses): lower HbA1c level
blood glucose level versus db control mice at the end of the study ([3]; 10, 30 or 100 μg/kg s.c. once daily, 4 weeks): significant lower blood glucose level
blood glucose after 4 weeks of treatment ([3]; 10, 30 or 100 μg/kg s.c. once daily, 4 weeks, compared with liraglutide): strong and dose-dependent decrease in blood glucose, superior to liraglutide in the medium and highest dose
blood glucose compared to db/db control mice, 24 h profile ([3]; single 100 μg/kg s.c., fed db/db mice): significant decrease in blood glucose
Stability (pH 4.5) ([4]; pH 4.5): 92.5%
Stability (pH 7.4) ([4]; pH 7.4): 97.7%
EC50 (human GIP receptor): 5.7 pM
